From ChEMBL document CHEMBL5608234, “Heat Shock Protein 90 Interactome-Mediated Proteolysis Targeting Chimera (HIM-PROTAC) Degrading Glutathione Peroxidase 4 to Trigger Ferroptosis” (J Med Chem, 2024)
Activity calls are given as the source filed them. No cut-off for these calls is given here.

Key:
HT-1080 = assay: HIM-PROTAC activity at GPX4/HSP90/E3 ligase in CUL5-knockdown human HT-1080 cells assessed as GPX4 degradation at 0.3 to 1 uM incubated for 24 hrs by Western blotting analysis; format: cell-based; conditions: dose 0.3-1 µM
[1] = Drug uptake in human HT-1080 cells at 5 uM incubated for 18 hrs by LC-MS analysis; format: ADME, cell-based; conditions: ht-1080, 18 h

Compound	Activity (HT-1080)	Drug uptake [1]
COc1c(C)cnc(Cn2cnc3c(NCCC4CCN(C(=O)Cn5cc(COc6ccc(N(C(=O)CCl)C(C(=O)NCCc7ccccc7)c7cccs7)cc6Cl)nn5)CC4)nc(N)nc32)c1C (configuration not stated)	inactive	–
COc1c(C)cnc(Cn2cnc3c(NCCOCCOCCOCCn4cc(COc5ccc(N(C(=O)CCl)C(C(=O)NCCc6ccccc6)c6cccs6)cc5Cl)nn4)nc(N)nc32)c1C (configuration not stated)	–	Not Active
